The test system of data set [1] is MDCK. Kind of data set: Prodrug activation in MDCK cells assessed as T-1105-RDP formation at 500 uM after 2 hrs by RP-HPLC-UV analysis. Conditions: dog. In kind it is cell-based, Canis lupus familiaris.
Data set [2] is described as follows: Cytotoxicity against MDCK cells assessed as change in cell morphology after 3 days by microscopic analysis. In kind it is cell-based, Canis lupus familiaris. The conditions noted are these: dog.
Data set [3] relates to Influenza A virus. In kind it is functional, organism-based. The conditions noted are these: Influenza A virus (A/X-31(H3N2)); MDCK; 12 to 25 uM.
In data set [4] the target is T1, Liver carboxylesterase (Sus scrofa, UniProt Q29550).
T1 sequence (Q29550 whole entry): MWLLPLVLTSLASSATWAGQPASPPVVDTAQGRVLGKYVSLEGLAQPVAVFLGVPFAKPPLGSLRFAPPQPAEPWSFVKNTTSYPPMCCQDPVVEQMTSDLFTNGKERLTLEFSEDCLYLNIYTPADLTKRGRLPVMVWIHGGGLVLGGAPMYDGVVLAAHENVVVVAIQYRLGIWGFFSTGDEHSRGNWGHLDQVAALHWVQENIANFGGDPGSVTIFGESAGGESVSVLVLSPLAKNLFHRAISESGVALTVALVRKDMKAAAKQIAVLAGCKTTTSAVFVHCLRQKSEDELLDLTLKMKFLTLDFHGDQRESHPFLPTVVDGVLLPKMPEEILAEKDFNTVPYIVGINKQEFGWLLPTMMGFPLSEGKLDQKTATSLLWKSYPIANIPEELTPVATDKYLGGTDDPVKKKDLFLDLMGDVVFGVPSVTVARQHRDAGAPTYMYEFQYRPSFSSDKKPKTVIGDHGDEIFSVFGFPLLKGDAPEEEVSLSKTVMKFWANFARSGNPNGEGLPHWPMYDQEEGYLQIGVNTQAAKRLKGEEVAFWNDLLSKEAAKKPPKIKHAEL
Nature of the data set: Prodrug activation assessed as pig liver esterase mediated metabolite formation at 450 uM up to 150 mins by RP-HPLC-UV analysis. In kind it is ADME. The conditions noted are these: isolated protein, 2.5 h.

Data set [5] relates to Influenza B virus. Nature of the data set: microbe, parasite or virus in culture. The conditions noted are these: Ned/537/05, MDCK, 72 h.
Description: Antiviral activity against Influenza virus B/Ned/537/05 infected in MDCK cells assessed as reduction in viral replication at 3 days post infection by formazan-based MTS assay
Data set [6] is described as follows: Cytotoxicity against HGPRT deficient 6-thioguanine-resistant MDCK cells assessed as change in cell morphology after 3 days by microscopic analysis. In kind it is cell-based, Canis lupus familiaris. Conditions: dog.
Data set [7] deals with Influenza A virus. In kind it is functional, organism-based. The conditions noted are these: Influenza A virus (A/X-31(H3N2)); MDCK; 25 uM.
For data set [8], the system named is MDCK. Kind of data set: Prodrug activation in MDCK cells assessed as T-1105-RMP formation at 450 uM up to 4 hrs by RP-HPLC-UV analysis. In kind it is cell-based, Canis lupus familiaris. The conditions noted are these: dog.
Data set [9] can be described thus: Cytotoxicity against MDCK cells assessed as reduction in cell viability after 3 days by formazan-based MTS assay. Also on record: species or system Canis lupus familiaris. Conditions: dog. (In general: Tetrazolium assays rely on reduction of a dye to a coloured formazan, in cell work by metabolically active cells.)
In data set [10] the test system is Influenza A virus. Kind of data set: microbe, parasite or virus in culture. Conditions: MDCK, 72 h.
Description: Antiviral activity against Influenza virus A/X-31 infected in MDCK cells assessed as reduction in viral replication at 3 days post infection by microscopic analysis
In data set [11] the test system is Influenza B virus. Kind of data set: microbe, parasite or virus in culture. Conditions: Ned/537/05, MDCK, 72 h. The source holds these as a separate data set.
Description: Antiviral activity against Influenza virus B/Ned/537/05 infected in MDCK cells assessed as reduction in viral replication at 3 days post infection by microscopic analysis
Data set [12] concerns unidentified influenza virus. Kind of data set: Potency index, ratio of T-1105 EC99 to compound EC99 for Influenza virus infected in human A549 cells. In kind it is functional.
Data set [13] can be described thus: Prodrug activation in phosphate buffer at pH 7.3 assessed as half life for T-1105-RDP formation at 450 uM after 24 to 120 hrs by RP-HPLC-UV analysis. The conditions noted are these: pH 7.3, 450 µM. In kind it is physicochemical.
Data set [14] concerns the target T1, Liver carboxylesterase. Nature of the data set: Drug metabolism assessed as pig liver esterase mediated 4-((((((2R,3S,4R,5R)-5-(3-carbamoyl-2-oxopyrazin-1(2H)-yl)-3,4-dihydroxytetrahydrofuran-2-yl)methoxy)(hydroxy)phosphoryloxy)(hydroxy)phosphoryloxy)methyl)phenyl decanoate formation at 450 uM after 150 mins by RP-HPLC-UV analysis. In kind it is ADME. Conditions: isolated protein, 2.5 h.

In data set [15] the test system is MDCK. Kind of data set: Prodrug activation in MDCK cells assessed as T-1105-RTP formation at 450 uM up to 4 hrs by RP-HPLC-UV analysis. In kind it is cell-based, Canis lupus familiaris. The conditions noted are these: dog.
Data set [16] relates to Influenza A virus. Kind of data set: microbe, parasite or virus in culture. Conditions: MDCK, 72 h. The source holds these as a separate data set.
Description: Antiviral activity against Influenza virus A/X-31 infected in MDCK cells assessed as reduction in viral replication at 3 days post infection by formazan-based MTS assay
For data set [17], the system named is Influenza A virus. In kind it is functional, organism-based. The conditions noted are these: Influenza A virus (A/X-31(H3N2)); MDCK; 12 to 25 uM. This is another data set of the same source.
Data set [18] is described as follows: Drug metabolism in MDCK cells assessed as 4-((((((2R,3S,4R,5R)-5-(3-carbamoyl-2-oxopyrazin-1(2H)-yl)-3,4-dihydroxytetrahydrofuran-2-yl)methoxy)(hydroxy)phosphoryloxy)(hydroxy)phosphoryloxy)methyl)phenyl decanoate formation at 450 uM up to 4 hrs by RP-HPLC-UV analysis. In kind it is ADME, cell-based, Canis lupus familiaris. Conditions: dog.
Data set [19] in a line: Inhibition of Influenza virus A/X-31 RNA dependent RNA polymerase using ApG primer [adenyl (3'-5') guanosine] and [8-3H]GTP after 1 hr by filter-based assay. Also on record: species or system Influenza A virus (A/X-31(H3N2)).
In data set [20] the test system is Influenza A virus. In kind it is functional, organism-based. The conditions noted are these: Influenza A virus (A/X-31(H3N2)); MDCK; 25 uM. The source holds these as a separate data set.
Data set [21] relates to MDCK. In kind it is cell-based, Canis lupus familiaris. Conditions: dog, 2 h, 500 µM.
The subject of data set [22] is Influenza A virus. In kind it is functional, organism-based. The conditions noted are these: Influenza A virus (A/X-31(H3N2)); MDCK; 6 uM.
For data set [23], the system named is Influenza A virus. In kind it is functional, organism-based. The conditions noted are these: Influenza A virus (A/X-31(H3N2)); MDCK; 25 uM. This is another data set of the same source.
Data set [24] is described as follows: Drug metabolism in MDCK cells assessed as T-1105-RDP formation at 450 uM up to 4 hrs by RP-HPLC-UV analysis. In kind it is ADME, cell-based, Canis lupus familiaris. Conditions: dog.
In the next data set the test system is A549. Nature of the data set: Cytotoxicity against human A549 cells assessed as reduction in cell viability at 100 uM. Conditions: a549, 100 µM. In kind it is cell-based.
In data set [25] the test system is unidentified influenza virus. Nature of the data set: Antiviral activity against Influenza virus infected in human A549 cells. In kind it is functional.
Data set [26] can be described thus: Inhibition of Influenza virus B/Ned/537/05 RNA dependent RNA polymerase using ApG primer [adenyl (3'-5') guanosine] and [8-3H]GTP after 1 hr by filter-based assay.
In data set [27] the test system is MDCK. Nature of the data set: Prodrug activation in HGPRT deficient 6-thioguanine-resistant MDCK cells by RP-HPLC-UV analysis. Conditions: dog. In kind it is cell-based, Canis lupus familiaris.
Data set [28] has as its system MDCK. Nature of the data set: Prodrug activation in MDCK cells by RP-HPLC-UV analysis. In kind it is cell-based, Canis lupus familiaris. The conditions noted are these: dog.
The subject of data set [29] is MDCK. Kind of data set: Prodrug activation in MDCK cells assessed as T-1105-RMP formation at 465 uM after 1 to 840 mins by RP-HPLC-UV analysis. In kind it is cell-based, Canis lupus familiaris. The conditions noted are these: dog.
The nature of data set [30]: Drug metabolism in MDCK cells assessed as T-1105-RTP formation at 465 uM after 2 hrs in presence of 5mM ATP by RP-HPLC-UV analysis. In kind it is ADME, cell-based, Canis lupus familiaris. The conditions noted are these: dog.
Data set [31] can be described thus: Drug metabolism in MDCK cells assessed as T-1105-RTP formation at 465 uM in presence of GTP by RP-HPLC-UV analysis. In kind it is ADME, cell-based, Canis lupus familiaris. The conditions noted are these: dog.
For data set [32], the target named is Membrane-associated guanylate kinase, WW and PDZ domain-containing protein 1 (Homo sapiens) (UniProt Q96QZ7). Nature of the data set: Inhibition of human recombinant guanylate kinase 1 mediated […] conversion at 400 uM preincubated for 10 mins followed by enzyme addition measured up to 60 mins by UV absorbance method relative to control.
For data set [33] the target is unchanged. Kind of data set: Inhibition of human recombinant guanylate kinase 1 mediated […] conversion at 100 uM preincubated for 10 mins followed by enzyme addition measured up to 60 mins by UV absorbance method relative to control.
The subject of data set [34] is MDCK. Kind of data set: Prodrug activation in HGPRT deficient MDCK cells assessed as T-1105-RMP formation at 465 uM after 1 to 840 mins by RP-HPLC-UV analysis. In kind it is cell-based, Canis lupus familiaris. Conditions: dog.
Data set [35] concerns MDCK. Nature of the data set: Cytotoxicity against MDCK cells assessed as reduction in cell viability at 37 uM after 3 days by formazan-based MTS assay. Also on record: species or system Canis lupus familiaris. Conditions: dog, 72 h.
The target in data set [36] is Membrane-associated guanylate kinase, WW and PDZ domain-containing protein 1 (Homo sapiens) (UniProt Q96QZ7). Nature of the data set: Inhibition of human recombinant guanylate kinase 1 mediated […] conversion at 200 uM preincubated for 10 mins followed by enzyme addition measured up to 60 mins by UV absorbance method relative to control.
The nature of data set [37]: Drug metabolism in MDCK cells assessed as T-1105-RDP formation at 465 uM during 15 hrs by RP-HPLC-UV analysis. In kind it is ADME, cell-based, Canis lupus familiaris. The conditions noted are these: dog.
Data set [38] can be described thus: Drug metabolism in MDCK cells assessed as T-1105-RTP formation at 465 uM during 15 hrs by RP-HPLC-UV analysis. In kind it is ADME, cell-based, Canis lupus familiaris. The conditions noted are these: dog.
In data set [39] the target is Membrane-associated guanylate kinase, WW and PDZ domain-containing protein 1 (Homo sapiens) (UniProt Q96QZ7). Nature of the data set: Inhibition of human recombinant guanylate kinase 1 mediated […] conversion at 25 to 400 uM preincubated for 10 mins followed by enzyme addition measured up to 60 mins by UV absorbance method.

Activity calls are given as the source filed them. The calls are words filed in the database; no cut-off is given here.

Chain of Membrane-associated guanylate kinase, WW and PDZ domain-containing protein 1 (Homo sapiens) (Q96QZ7 whole entry, the tested form may be a part): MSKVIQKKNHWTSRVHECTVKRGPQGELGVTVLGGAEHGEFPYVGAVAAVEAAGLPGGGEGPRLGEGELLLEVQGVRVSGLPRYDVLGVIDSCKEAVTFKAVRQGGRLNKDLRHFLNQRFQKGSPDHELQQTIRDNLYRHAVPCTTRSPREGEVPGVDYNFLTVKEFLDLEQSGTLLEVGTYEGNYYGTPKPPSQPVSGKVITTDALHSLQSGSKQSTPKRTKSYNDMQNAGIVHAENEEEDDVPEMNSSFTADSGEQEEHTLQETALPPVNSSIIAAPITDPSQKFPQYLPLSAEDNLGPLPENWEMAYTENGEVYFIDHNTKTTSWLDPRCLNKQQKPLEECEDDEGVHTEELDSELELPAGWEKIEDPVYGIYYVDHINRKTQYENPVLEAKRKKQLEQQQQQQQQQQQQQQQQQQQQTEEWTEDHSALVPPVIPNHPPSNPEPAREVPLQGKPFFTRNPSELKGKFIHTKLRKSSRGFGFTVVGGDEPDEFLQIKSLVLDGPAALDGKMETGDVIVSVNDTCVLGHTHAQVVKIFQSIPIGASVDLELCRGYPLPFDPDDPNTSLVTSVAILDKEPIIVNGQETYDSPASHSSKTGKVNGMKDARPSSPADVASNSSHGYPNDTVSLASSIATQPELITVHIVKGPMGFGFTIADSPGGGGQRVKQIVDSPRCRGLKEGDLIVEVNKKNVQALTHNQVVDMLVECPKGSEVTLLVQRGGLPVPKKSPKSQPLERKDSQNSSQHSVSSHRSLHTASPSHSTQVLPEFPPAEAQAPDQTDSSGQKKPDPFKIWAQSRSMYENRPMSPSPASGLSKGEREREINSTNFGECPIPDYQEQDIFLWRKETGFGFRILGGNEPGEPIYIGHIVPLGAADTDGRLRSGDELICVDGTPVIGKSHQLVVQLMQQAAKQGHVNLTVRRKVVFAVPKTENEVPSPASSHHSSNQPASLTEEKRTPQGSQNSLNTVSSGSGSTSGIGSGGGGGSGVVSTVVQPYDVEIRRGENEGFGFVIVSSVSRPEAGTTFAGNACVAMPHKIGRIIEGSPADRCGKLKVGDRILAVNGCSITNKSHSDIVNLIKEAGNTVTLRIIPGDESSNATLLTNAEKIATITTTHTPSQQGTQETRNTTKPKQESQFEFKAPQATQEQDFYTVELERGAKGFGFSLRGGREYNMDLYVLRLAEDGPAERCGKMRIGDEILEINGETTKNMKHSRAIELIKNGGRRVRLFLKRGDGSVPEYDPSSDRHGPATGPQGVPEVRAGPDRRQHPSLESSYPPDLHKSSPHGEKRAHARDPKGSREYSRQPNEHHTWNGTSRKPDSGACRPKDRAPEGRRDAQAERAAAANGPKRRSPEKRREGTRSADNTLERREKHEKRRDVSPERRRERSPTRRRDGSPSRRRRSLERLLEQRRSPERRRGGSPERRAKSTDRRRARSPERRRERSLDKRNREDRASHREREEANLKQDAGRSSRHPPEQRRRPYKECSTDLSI

By inhibition is commonly meant the drop in the measured response relative to a control, in per cent. What is called EC50 is the concentration needed to bring the measured effect to its halfway point. The low end stands for higher potency in that assay, the high end for lower potency in that assay. By CC50 is commonly meant the concentration that lowers cell viability or growth by half. By IC50 is commonly meant the point on the concentration scale where inhibition reaches its midpoint. Lower therefore signals higher potency. One may read the EC99 as the concentration at which the effect reaches the 99% level. Lower therefore signals an effect from little substance. `CCCCCCCCCC(=O)Oc1ccc(COP(=O)(OCc2ccc(OC(=O)CCCCCCCCC)cc2)OP(=O)(O)OC[C@H]2O[C@@H](n3ccnc(C(N)=O)c3=O)[C@H](O)[C@@H]2O)cc1.CCN(CC)CC`: the Drug metabolism result is “Metabolite_Detected” in the data set with MDCK [1]; “Metabolite_Detected” at Liver carboxylesterase [4]; “Metabolite_Detected” in the data set on MDCK [8]; “Metabolite_Detected” on Liver carboxylesterase [14]; “Metabolite_Notdetected” in the data set on MDCK [15]; “Metabolite_Detected” in data set [18]. Also, the Drug metabolism entry (in the data set with MDCK [21]; in data set [24]) was “Metabolite_Detected” in each case. Also, the MCC at 72 h in data set [2] turned out to be 37 µM; in data set [6] it was 22 µM. Besides, the inhibition entry in the data set on Influenza A virus [3], in the data set with Influenza A virus [7], in the data set with Influenza A virus [17] and with Influenza A virus [22] was “Active” each time. Moreover, the EC50 in the data set with Influenza B virus [5] came out at 0.56 µM; in the data set on Influenza A virus [10], 1.3 µM; with Influenza B virus [11], 0.81 µM; in the data set with Influenza A virus [16] it was 1 µM. The CC50 at 72 h in data set [9] is > 100 µM. In data set [12], the Ratio stood at 2. Also, in data set [13], the t1/2 came to 30 h. Besides, the IC50 in [19] and in data set [26] was 49 to 126 µM in each case. The inhibition result in the data set on Influenza A virus [20] and in the data set with Influenza A virus [23] was “inactive” throughout. Moreover, the Activity entry with A549 is “Non-Toxic”. In data set [25], this molecule gave an EC99 of 72 µM.
Consider `NC(=O)c1nc(Br)cnc1O`, for which the MCC at 72 h in [2] and in data set [6] was > 250 µM throughout. Further, the EC50 with Influenza B virus [5], in the data set with Influenza A virus [10], with Influenza B virus [11] and in the data set on Influenza A virus [16] was > 250 µM in each case. Besides, the Drug metabolism entry with MDCK [27] and in the data set with MDCK [28] was “Metabolite_Notdetected” in each case. Also, the CC50 at 72 h in data set [9] is > 250 µM.
As for `NC(=O)c1nccn([C@@H]2O[C@H](COP(=O)(O)OP(=O)(O)O)[C@@H](O)[C@H]2O)c1=O`, the Drug metabolism entry (in the data set with MDCK [29]; in [30]; in [31]; in the data set on MDCK [34]) was “Metabolite_Detected” throughout. Also, the inhibition in data set [32] worked out at 82%; in data set [33], 37%; in [36] it was 62%. Moreover, the Activity entry in the data set with MDCK [35] is listed as “Non-Toxic”.
Regarding `NC(=O)c1nccn([C@@H]2O[C@H](COP(=O)(O)O)[C@@H](O)[C@H]2O)c1=O`, the Drug metabolism entry in [37] and in [38] was “Metabolite_Notdetected” each time. Also, in [39], the inhibition entry was “inactive”.

(Values after ChEMBL document CHEMBL4130627, “Prodrugs of the Phosphoribosylated Forms of Hydroxypyrazinecarboxamide Pseudobase T-705 and Its De-Fluoro Analogue T-1105 as Potent Influenza Virus Inhibitors” (J Med Chem, 2018).)
